Laboratory results reported in PubChem BioAssay (NCI).
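Dose response: 5 concentrations. Exposure: 48 h. Format: 96-well plates. Endpoint: linear interpolation; highest concentration if not reached. Here, GI50 denotes the concentration required for 50% inhibition of growth. TGI: total growth inhibition.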

Assays:
Assay in all cases: NCI anticancer screen, dose series, 48 h
HCT-116 colon = tested on: HCT-116 colon
NCI-H226 lung = tested on: NCI-H226 lung
NCI-H460 lung = tested on: NCI-H460 lung
SF-295 CNS = tested on: SF-295 CNS
SK-MEL-28 melanoma = tested on: SK-MEL-28 melanoma
SK-MEL-5 melanoma = tested on: SK-MEL-5 melanoma
SN12C renal = tested on: SN12C renal
SW-620 colon = tested on: SW-620 colon
U251 CNS = tested on: U251 CNS
EKVX NSCLC = tested on: EKVX NSCLC

| SMILES | GI50 (HCT-116 colon) | TGI (HCT-116 colon) | GI50 (NCI-H226 lung) | TGI (NCI-H226 lung) | GI50 (NCI-H460 lung) | TGI (NCI-H460 lung) | GI50 (SF-295 CNS) | TGI (SF-295 CNS) | GI50 (SK-MEL-28 melanoma) | TGI (SK-MEL-28 melanoma) | GI50 (SK-MEL-5 melanoma) | TGI (SK-MEL-5 melanoma) | GI50 (SN12C renal) | TGI (SN12C renal) | GI50 (SW-620 colon) | TGI (SW-620 colon) | GI50 (U251 CNS) | TGI (U251 CNS) | GI50 (EKVX NSCLC) | TGI (EKVX NSCLC) |
| --- | --- | --- | --- | --- | --- | --- | --- | --- | --- | --- | --- | --- | --- | --- | --- | --- | --- | --- | --- | --- |
| COc1cc(Cl)cc(-c2nn(-c3cccc(NC(=O)Nc4ccc(Cl)c(Cl)c4)c3)cc2-c2ccncc2)c1 | 2.02 µM | > 100 µM | 3.06 µM | > 100 µM | 2.27 µM | 13.9 µM | 1.77 µM | 7.21 µM | 2.96 µM | 36.8 µM | 1.62 µM | 3.17 µM | 3.1 µM | > 100 µM | 3.43 µM | > 100 µM | 1.7 µM | 6.03 µM | – | – |
| Cc1nc2ccccc2nc1N=Nc1ccccc1 | 31.1 µM | > 100 µM | 24.6 µM | > 100 µM | – | – | 6.38 µM | > 100 µM | 26 µM | > 100 µM | 16 µM | 30.1 µM | 30 µM | > 100 µM | – | – | 35.9 µM | > 100 µM | 10.9 µM | > 100 µM |
| O=C1OC(=O)C2C3C=CC(C12)C1C2C=CC2C31 (configuration not stated) | – | > 100 µM | – | > 100 µM | – | > 100 µM | – | > 100 µM | – | > 100 µM | – | – | – | > 100 µM | – | > 100 µM | – | > 100 µM | – | > 100 µM |
| COc1ccc(-c2csc(NC(=O)CN3CCN(c4cc5c(cc4F)c(=O)c(C(=O)O)cn5C4CC4)CC3)n2)cc1 | 3.1 µM | > 100 µM | 4.96 µM | > 100 µM | 3.18 µM | > 100 µM | 2.73 µM | 15.9 µM | 3.72 µM | > 100 µM | – | – | 3.37 µM | > 100 µM | 3.9 µM | > 100 µM | 3.03 µM | 13.9 µM | 4.39 µM | > 100 µM |
| Cl.Fc1c[c-]c(-c2ccccn2)c(F)c1.[Pt].c1ccc([PH+](C[PH+](c2ccccc2)c2ccccc2)c2ccccc2)cc1 | – | – | – | – | – | – | – | – | 0.231 µM | 0.706 µM | – | – | – | – | 0.197 µM | 0.494 µM | – | – | 0.261 µM | 1.05 µM |
| Cc1nc2cc(Nc3nc(Nc4ccc(F)cc4)nc(N4CCOCC4)n3)ccc2n1Cc1ccccc1 | 1.98 µM | 4 µM | 5.79 µM | 24.2 µM | 2.26 µM | 5.02 µM | 3.01 µM | 9.03 µM | 3.17 µM | 9.6 µM | 2.9 µM | 11.1 µM | 4.63 µM | 27.4 µM | 3.97 µM | 30.8 µM | 1.99 µM | 4.6 µM | – | – |
| COC(=O)[C@H](Cc1cn(C)cn1)NC(=O)[C@H](C)NC(=O)Nc1cc(C(F)(F)F)cc(C(F)(F)F)c1 | > 10 µM | > 10 µM | > 10 µM | > 10 µM | > 10 µM | > 10 µM | > 10 µM | > 10 µM | > 10 µM | > 10 µM | > 10 µM | > 10 µM | > 10 µM | > 10 µM | > 10 µM | > 10 µM | > 10 µM | > 10 µM | – | – |
| Cc1ccc(S(=O)(=O)N/N=C/C(C)C)cc1 | – | > 100 µM | – | – | – | > 100 µM | – | > 100 µM | – | – | – | > 100 µM | – | > 100 µM | – | > 100 µM | – | > 100 µM | – | > 100 µM |
| COC(=O)C(C(=O)OC)C(Br)C(Br)C(Br)c1ccccc1 (configuration not stated) | 2 µM | 3.82 µM | 15.1 µM | 29.5 µM | 19.9 µM | 37.2 µM | 18.9 µM | 37.3 µM | 12.5 µM | 25.3 µM | – | – | 14 µM | 27.3 µM | 3.29 µM | 11.4 µM | 14.8 µM | 28 µM | – | – |
| O=C1c2cccnc2C(=O)c2c1c(C(=O)OCCCN1CCCCC1)c1ccccn21 | < 0.0106 µM | 0.275 µM | < 0.01 µM | 0.0318 µM | < 0.01 µM | 0.0122 µM | 0.01 µM | 0.0383 µM | 0.034 µM | 3.74 µM | < 0.0143 µM | 0.0466 µM | – | – | < 0.01 µM | < 0.0192 µM | < 0.01 µM | 0.0372 µM | 0.0351 µM | 0.253 µM |
| COc1ccc(CCN2CCC(CN(C)Cc3cnn(-c4ccccc4)c3)CC2)cc1 | 11.8 µM | 25.6 µM | 32.5 µM | > 100 µM | 18.7 µM | 39.2 µM | 12.1 µM | 25.2 µM | 2.52 µM | 7.53 µM | 3.96 µM | 14.9 µM | 21.3 µM | > 100 µM | 16.5 µM | 33.6 µM | 13 µM | 27 µM | – | – |
| OCCN(CCO)c1cccc(N(CCO)CCO)n1 | – | > 100 µM | – | – | – | > 100 µM | – | > 100 µM | – | > 100 µM | – | > 100 µM | – | – | – | > 100 µM | – | > 100 µM | – | > 100 µM |
| CN1CCN(c2nc(-c3csc(-c4cccs4)n3)cc3ccccc23)CC1 | 1.76 µM | 3.36 µM | – | – | 1.78 µM | 3.25 µM | 1.82 µM | 3.39 µM | 1.77 µM | 3.24 µM | 1.71 µM | 3.12 µM | 1.81 µM | 3.47 µM | 1.75 µM | 3.25 µM | 1.66 µM | 3.29 µM | 1.58 µM | 3.34 µM |
| O=Cc1ccc(-c2ccc(-c3nc4ccccc4s3)cc2)s1 | 35.3 µM | > 100 µM | 66.1 µM | > 100 µM | 83.5 µM | > 100 µM | 40.7 µM | > 100 µM | > 100 µM | > 100 µM | 27.1 µM | > 100 µM | – | – | 56.4 µM | > 100 µM | 51.9 µM | > 100 µM | 42.1 µM | > 100 µM |
| Cc1c2c(c(C)c3c1[nH]c1ccccc13)CN(C)CC2 | – | 29.4 µM | – | 56.5 µM | – | 35.5 µM | – | 31.7 µM | – | 36.2 µM | – | 26.1 µM | – | 76.6 µM | – | 28.6 µM | – | 26 µM | – | – |
| CCC(C)C(=O)OCC(=O)c1ccc(-c2ccccc2)cc1 (configuration not stated) | – | > 100 µM | – | – | – | > 100 µM | – | > 100 µM | – | > 100 µM | – | 72.6 µM | – | > 100 µM | – | > 100 µM | – | > 100 µM | – | 84.4 µM |
| C/C(=N\NC(=S)N1CCCCCC1)c1cccc2cccnc12 | – | > 67.1 µM | – | – | – | > 100 µM | – | > 21 µM | – | > 66.4 µM | – | – | – | – | – | > 100 µM | – | > 29.2 µM | – | > 75.3 µM |
